Results as given in PMC3997506, “Novel PPAR Pan Agonist, ZBH Ameliorates Hyperlipidemia and Insulin Resistance in High Fat Diet Induced Hyperlipidemic Hamster” (PLoS ONE, 2014).

Tests used:
3T3-L1 adipocytes = assay: Adiponectin expression in 3T3-L1 adipocytes; type: cell-based; conditions: 10–100 µM, dose dependent, data not shown
hPPARδ = molecular target: T1, hPPARδ (Homo sapiens, UniProt Q03181); assay: In vitro transactivation assay, GAL4-hPPAR luciferase reporter in HEK-293 cells; type: cell-based; conditions: HEK-293, 24 h treatment
T1 sequence (Q03181 171-441 limits assumed): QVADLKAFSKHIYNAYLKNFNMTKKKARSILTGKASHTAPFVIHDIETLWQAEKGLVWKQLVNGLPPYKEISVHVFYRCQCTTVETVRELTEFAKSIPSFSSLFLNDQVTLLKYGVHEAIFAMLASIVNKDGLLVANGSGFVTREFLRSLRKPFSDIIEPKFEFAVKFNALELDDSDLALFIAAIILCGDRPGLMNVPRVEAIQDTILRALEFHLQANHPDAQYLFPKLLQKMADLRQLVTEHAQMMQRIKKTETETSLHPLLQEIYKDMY
Protocol: (§1) Transactivation of PPARs was analyzed in a cell-based luciferase reporter assay using HEK-293 cells transiently transfected to express hPPAR-GAL4 chimeric receptors with plasmids GAL4-hPPAR α, γ, or δ, and pUAS (5x)-tk-luc receptor vector as previously described. 24 h after transfection, cells were treated with the indicated compounds, followed by the measurement of luciferase activity 24 h later. Mean values represent those obtained from at least three independent experiments performed in triplicate and normalized by the Renilla luciferase reading.
(§2) HEK-293 cells transiently transfected to express hPPAR-GAL4 chimeric receptors with plasmids GAL4-hPPAR α, γ, or δ, and pUAS (5x)-tk-luc receptor vector. 24 h after transfection, cells were treated with the indicated compounds at various concentrations followed by the measurement of luciferase activity 24 h after treatment. The results shown are the mean values obtained from at least three independent experiments performed in triplicate normalized by the Renilla luciferase reading.

hPPARγ = molecular target: T2, hPPARγ (Homo sapiens, UniProt P37231); assay: as above; type: cell-based; conditions: HEK-293, 24 h treatment
T2 sequence (P37231 238-505 limits assumed): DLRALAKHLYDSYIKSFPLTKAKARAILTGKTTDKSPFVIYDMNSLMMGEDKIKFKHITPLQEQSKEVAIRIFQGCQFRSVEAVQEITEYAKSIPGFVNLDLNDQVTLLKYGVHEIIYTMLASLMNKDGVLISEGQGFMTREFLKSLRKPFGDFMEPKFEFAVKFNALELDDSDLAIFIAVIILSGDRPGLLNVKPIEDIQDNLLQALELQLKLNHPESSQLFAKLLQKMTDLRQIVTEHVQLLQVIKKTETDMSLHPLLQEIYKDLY
Protocol: as §1, §2

SIRT1 = molecular target: T3, SIRT1 (Homo sapiens, UniProt Q96EB6); assay: SIRT1 enzyme activity assay (Direct Fluorescent Screening Assay kit); type: biochemical; conditions: read-out: SIRT1 maximal activation
T3 construct: purchased Cayman chemical
T3 sequence (Q96EB6 1-747): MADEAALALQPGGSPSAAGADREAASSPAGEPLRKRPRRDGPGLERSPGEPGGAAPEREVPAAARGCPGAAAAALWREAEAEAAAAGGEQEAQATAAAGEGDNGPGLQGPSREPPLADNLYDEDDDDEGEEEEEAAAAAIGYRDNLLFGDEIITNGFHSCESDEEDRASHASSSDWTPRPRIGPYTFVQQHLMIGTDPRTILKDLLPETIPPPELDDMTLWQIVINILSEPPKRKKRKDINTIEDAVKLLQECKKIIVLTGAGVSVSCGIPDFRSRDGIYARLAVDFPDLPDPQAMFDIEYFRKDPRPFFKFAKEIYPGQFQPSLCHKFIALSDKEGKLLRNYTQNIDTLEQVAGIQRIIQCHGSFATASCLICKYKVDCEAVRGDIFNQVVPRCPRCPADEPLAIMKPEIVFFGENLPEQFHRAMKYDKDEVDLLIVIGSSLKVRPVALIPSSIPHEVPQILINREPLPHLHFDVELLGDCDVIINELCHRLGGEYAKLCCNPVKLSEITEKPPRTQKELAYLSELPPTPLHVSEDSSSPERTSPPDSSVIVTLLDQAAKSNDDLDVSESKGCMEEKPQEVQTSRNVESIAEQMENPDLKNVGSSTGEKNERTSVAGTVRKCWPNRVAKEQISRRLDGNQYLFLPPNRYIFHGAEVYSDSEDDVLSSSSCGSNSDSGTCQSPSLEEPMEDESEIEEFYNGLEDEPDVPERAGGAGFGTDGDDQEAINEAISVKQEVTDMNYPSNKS
Protocol: SIRT1 enzyme activity was assayed with the SIRT1 Direct Fluorescent Screening Assay kit (Cayman chemical, MI, USA), according to the manufacturer’s instructions. Fluorescence was measured on an EnVision Multilabel Plate Reader (PerkinElmer, CA, USA). DMSO was used as a negative control and also as a solvent for resveratrol and ZBH.
Figure 4 Activation of SIRT1 by ZBH. SIRT1 enzyme activity was measured after treatment with ZBH and Resveratrol, and the fluorescence was tested on EnVision Multilabel Plate Reader. Values are mean±SE, n = 3.

SIRT1 mRNA = assay: Quantitative real-time PCR of tissues of hyperlipidemic hamsters; type: in vivo, golden Syrian hamsters (Mesocricetus auratus); conditions: short-term (3 days) and chronic (5 weeks) treatment
Protocol: To determine the relative mRNA expression levels of lipid metabolism-related genes, total RNA was isolated from the liver, white adipose tissue (WAT) or muscle and real-time PCR was performed with the ABI PRISM 7300 sequence detection system (Applied Biosystems, Warrington, UK) as previously described. The relative amount of all mRNAs was calculated using the comparative CT method. Target gene expression is presented relative to β-actin expression.
Figure 9 Effects of ZBH on gene expression in hyperlipidemic hamsters. Relative gene expression of the indicated genes in the liver (A and B), WAT (C and D) and skeletal muscle (E and F) of hyperlipidemic hamsters following 3 days (A, C and E) and/or 5 weeks (B, D and F) of ZBH or BEZ administration was determined by QPCR. Results are normalized to β-actin and expressed as mean fold increase of mRNA ±SD compared to the normal hamsters (NC). n = 3. *P<0.05, **P<0.01, ***P<0.001 vs. MC group.

## COc1ccc(/C=C/c2cc(OC)cc(OCCCC(C)(C)C(=O)O)c2)cc1 [ZBH, (E)-5-(3-methoxy-5-(4-methoxystyryl)phenoxy) -2,2-dimethylpentanoic acid]
3T3-L1 adipocytes
  adiponectin expression: dramatically up-regulate
hPPARδ
  EC50: 19.2 µM
hPPARγ
  EC50: 25.4 µM
SIRT1
  Emax: 136%
SIRT1 mRNA
  SIRT1 mRNA expression in liver, adipose tissue and skeletal muscle: upregulated
